e = 2'-O-(2-methoxyethyl) (MOE); d = 2'-deoxy (DNA)
What follows are substances tested on JNK3 mRNA (assay: Northern assay of JNK3 mRNA levels in SH-SY5Y cells). Settings: 200 nM oligonucleotide.
Type: cell-based, human
Procedure: Northern Assays: The mRNA expression of each JNK protein was determined by using a nucleic acid probe specifically hybridizable thereto. Nucleic acid probes specific for JNK1, JNK2 and JNK3 are described in Examples 3, 4 and 5, respectively. The probes were radiolabelled by means well known in the art (see, e.g., Short Protocols in Molecular Biology, 2nd Ed., Ausubel et al., Eds., John Wiley & Sons, New York, 1992, pages 3-11 to 2-3-44 and 4-17 to 4-18; Ruth, Chapter 6 In: Methods in Molecular Biology, Vol. 26: Protocols for Oligonucleotide Conjugates, Agrawal, ed., Humana Press Inc., Totowa, N.J., 1994, pages 167-185; and Chapter 10 In: Molecular Cloning: A Laboratory Manual, 2nd Ed., Sambrook et al., Eds., pages 10.1-10.70). The blots were stripped and reprobed with a ^32P-labeled glyceraldehyde 3-phosphate dehydrogenase (G3PDH) probe (Clontech Laboratories, Inc., Palo Alto, Calif.) in order to confirm equal loading of RNA and to allow the levels of JNK transcripts to be normalized with regard to the G3PDH signals.
B. JNK3-specific probes: In initial screenings of a set of oligonucleotides derived from the JNK3 sequence for biological activity, a cDNA clone of JNK3 (Derijard et al., Cell, […], 76, 1025) was radiolabeled and used as a JNK3-specific probe in Northern blots. Alternatively, however, one or more of the oligonucleotides of Table 14 is detectably labeled and used as a JNK3-specific probe.
E. Activities of JNK3 oligonucleotides: The JNK3-specific phosphorothioate, 2′-methoxyethoxy “gapmer” oligonucleotides (Table 14) were screened for their ability to affect JNK3 mRNA levels in SH-SY5Y cells (Biedler et al., Cancer Res., 1973, 33, 2643). SH-SY5Y cells express a variety of mitogen-activated protein kinases (MAPKs; see, e.g., Cheng et al., J. Biol. Chem., 1998, 273, 14560). Cells were grown in DMEM essentially as previously described (e.g., Singleton et al., J. Biol. Chem., 1996, 271, 31791; Jalava et al., Cancer Res., 1990, 50, 3422) and treated with oligonucleotides at a concentration of 200 nM as described in Example 2. Control cultures were treated with an aliquot of LIPOFECTIN™ that contained no oligonucleotide.

First: 16690 (antisense TTCAACAGTTTCTTGCATAA; sugars from the 5' end e6 d8 e6, all phosphorothioate, methylation of C not given here) [compound 16690]
Second: 16691 (antisense CTCATCTATAGGAAACGGGT; sugars from the 5' end e6 d8 e6, all phosphorothioate, methylation of C not given here) [compound 16691]
The “% EXPRESSION” value of the first is lower: 60% for the first, 66% for the second.

Compared with “16692 (antisense TGGAGGCTCATAAATACCAC; sugars from the 5' end e6 d8 e6, all phosphorothioate, methylation of C not given here) [compound 16692]”, “16693 (antisense TATAAGAAATGGAGGCTCAT; sugars from the 5' end e6 d8 e6, all phosphorothioate, methylation of C not given here) [compound 16693]” is lower in “% EXPRESSION” value: 47% for the first, 40% for the second.

Going from “16694 (antisense TCACATCCAATGTTGGTTCA; sugars from the 5' end e6 d8 e6, all phosphorothioate, methylation of C not given here) [compound 16694]” to “16695 (antisense TTATCGAATCCCTGACAAAA; sugars from the 5' end e6 d8 e6, all phosphorothioate, methylation of C not given here) [compound 16695]”, the “% EXPRESSION” value rises from 42% to 44%.

First: 16696 (antisense GTTTGGCAATATATGACACA; sugars from the 5' end e6 d8 e6, all phosphorothioate, methylation of C not given here) [compound 16696]
Second: 16697 (antisense CTGTCAAGGACAGCATCATA; sugars from the 5' end e6 d8 e6, all phosphorothioate, methylation of C not given here) [compound 16697]
The “% EXPRESSION” value of the first is higher: 55% for the first, 54% for the second.

First: 16698 (antisense AATCACTTGACATAAGTTGG; sugars from the 5' end e6 d8 e6, all phosphorothioate, methylation of C not given here) [compound 16698]
Second: 16699 (antisense TAAATCCCTGTGAATAATTC; sugars from the 5' end e6 d8 e6, all phosphorothioate, methylation of C not given here) [compound 16699]
The “% EXPRESSION” value of the first is higher: 63% for the first, 61% for the second.

Going from “16702 (antisense TGTTCTCTTTCATCCAACTG; sugars from the 5' end e6 d8 e6, all phosphorothioate, methylation of C not given here) [compound 16702]” to “16703 (antisense TCTCACTGCTGTTCACTGCT; sugars from the 5' end e6 d8 e6, all phosphorothioate, methylation of C not given here) [compound 16703]”, the “% EXPRESSION” value falls from 39% to 30%.

First: 16704 (antisense GGGTCTGGTCGGTGGACATG; sugars from the 5' end e6 d8 e6, all phosphorothioate, methylation of C not given here) [compound 16704]
Second: 16705 (antisense AGGCTGCTGTCAGTGTCAGA; sugars from the 5' end e6 d8 e6, all phosphorothioate, methylation of C not given here) [compound 16705]
The “% EXPRESSION” value of the first is lower: 36% for the first, 42% for the second.

First: 16706 (antisense TCACCTGCAACAACCCAGGG; sugars from the 5' end e6 d8 e6, all phosphorothioate, methylation of C not given here) [compound 16706]
Second: 16707 (antisense GCGGCTAGTCACCTGCAACA; sugars from the 5' end e6 d8 e6, all phosphorothioate, methylation of C not given here) [compound 16707]
The “% EXPRESSION” value of the first is lower: 45% for the first, 73% for the second.

Going from “16708 (antisense CGCTGGGTTTCGCAGGCAGG; sugars from the 5' end e6 d8 e6, all phosphorothioate, methylation of C not given here) [compound 16708]” to “16709 (antisense ATCATCTCCTGAAGAACGCT; sugars from the 5' end e6 d8 e6, all phosphorothioate, methylation of C not given here) [compound 16709]”, the “% EXPRESSION” value falls from 68% to 66%.

Going from “16690 (antisense TTCAACAGTTTCTTGCATAA; sugars from the 5' end e6 d8 e6, all phosphorothioate, methylation of C not given here) [compound 16690]” to “16691 (antisense CTCATCTATAGGAAACGGGT; sugars from the 5' end e6 d8 e6, all phosphorothioate, methylation of C not given here) [compound 16691]”, the “% INHIBITION” value falls from 40% to 34%.

First: 16698 (antisense AATCACTTGACATAAGTTGG; sugars from the 5' end e6 d8 e6, all phosphorothioate, methylation of C not given here) [compound 16698]
Second: 16699 (antisense TAAATCCCTGTGAATAATTC; sugars from the 5' end e6 d8 e6, all phosphorothioate, methylation of C not given here) [compound 16699]
The “% INHIBITION” value of the first is lower: 37% for the first, 39% for the second.

First: 16707 (antisense GCGGCTAGTCACCTGCAACA; sugars from the 5' end e6 d8 e6, all phosphorothioate, methylation of C not given here) [compound 16707]
Second: 16708 (antisense CGCTGGGTTTCGCAGGCAGG; sugars from the 5' end e6 d8 e6, all phosphorothioate, methylation of C not given here) [compound 16708]
The “% INHIBITION” value of the first is lower: 27% for the first, 32% for the second.

For “16709 (antisense ATCATCTCCTGAAGAACGCT; sugars from the 5' end e6 d8 e6, all phosphorothioate, methylation of C not given here) [compound 16709]”, the “% INHIBITION” value was 34%.
